Data from US5980935A, “Cationic lipids and methods of use therefor” (priority 1996, dated 1999).

Experiments:
living cells = test: Delivery of functional plasmid DNA and phosphorothioate oligonucleotide into living cells (summary comparison); type: cell-based
Text: We have tested Arg-PE for its ability to deliver functional plasmid DNA and phosphorothioate oligonucleotide (PS ON) into living cells. […] Helper lipids are required for the activity of previously known monocationic lipids.

KB31 cells [1] = test: Toxicity of lipids alone or in complex with plasmid for cultured cells, MTT assay; type: cell-based, human; conditions: for Toxicity in the studied range of concentrations efficient for gene delivery: cultured human cells, alone or in combination with DNA
Procedure: Lipids alone, or in the complex with pUC-CMVLUC plasmid at the indicated ratio were added to the cell medium at concentrations of 3.2-100 microgram of lipid per 1 ml of growth medium. After 24 hours exposure to the lipids, the lipid-containing media were removed, and the cells were further incubated in fresh growth medium for 65 hours. At the end of incubations, the cell viability was determined by MTT assay as described in T. Mossman 65 J. Immunol.

NCI-H1048 cells [2] = test: Uptake of fluorescein-labeled 24-mer phosphorothioate oligonucleotide, flow cytometry (Table 2); type: cell-based, human; conditions: for Total uptake: mean cell fluorescence / Uptake increase over oligo alone: oligonucleotide 0.5 micro-M
Procedure: Human small cell lung carcinoma cells (NCI-H1048) were grown in RPMI-1640 medium with 10% heat-inactivated fetal calf serum. The cells were exposed for 7 hours in a serum-free medium with a fluorescein-labeled 24-mer phosphorothioate oligonucleotide (0.5 micro-M final concentration), alone or in a complex with lipids obtained as described in Examples 2 and 3. Then the equal volume of serum-supplemented medium was added, and the cells were incubated for another 18 hours. After incubation, cellular accumulation of the oligonucleotide was assayed by flow cytometry using fluorescein label fluorescence.

C26 cells = test: Delivery of bacterial plasmid into mouse colon carcinoma C26 cells, luciferase expression (Table 3); type: cell-based
Procedure: (§1) These materials were used as supplied from the manufacturer. DOTAP-DOPE 1:1 was prepared from the mixture (1:1 by weight) of 1,2 dioleoyloxy-3-trimethylammoniopropane (DOTAP, Avanti PolarLipids, USA) and DOPE by dissolving in distilled water at the concentration 2 mg/ml. DDAB-DOPE 1:2.5 (also known as LipofectACE®, Gibco BRL, USA) was prepared from the mixture of dioctadecyl-dimethylammonium bromide (DDAB, Sigma, USA) and DOPE in the weight ratio 1:2.5 dissolved in distilled water at concentration of 3 mg/ml with brief sonication. All lipid solutions were sterilized by filtration though 0.2 micrometer cellulase acetate filter, unless supplied sterile by manufacturers.
Mouse colon carcinoma cells (C26) were grown, incubated with plasmid pCMVLUC in the presence of Arg-PE or commercially available cationic lipids, and assayed for luciferase expression as described in Example 5 above.

KB31 cells [3] = test: Delivery of bacterial plasmid pUC-CMVLUC into KB31 cells, luciferase reporter expression (Table 1); type: cell-based, human; conditions: KB cells, pUC-CMVLUC 1 microgram, 7 h; maximum over a range of plasmid/lipid ratios
Procedure: as §1
Human epidermoid carcinoma (KB31) cells were grown at 37° C. and 5% CO2 in RPMI 1640 medium supplemented with 10% heat-inactivated fetal calf serum. The cells were plated into a 12-well cell culture plate at 1.5×10^5 cells/well in 1 ml of the growth medium. After a 24 hour acclimation period, 1 microgram of bacterial plasmid (pUC-CMVLUC) with luciferase reporter gene under control of the CMV promoter was added to the cell media, either alone, or in the complex with cationic lipids as indicated below, prepared at a variety of lipid-to-DNA ratios. The complexes were prepared by mixing the lipid, as supplied by the manufacturer, and 1 microgram of the plasmid in 40 microliters of HEPES-NS. […]

NCI-H1048 cells [4] = test: Delivery of bacterial plasmid into human extrapulmonary small cell carcinoma NCI-H1048 cells, luciferase expression (Table 4); type: cell-based
Procedure: as §1
The cells were plated into a 12-well cell culture plate at 1.5×10^5 cells/well in 1 ml of the growth medium. After a 24 hour acclimation period, 1 microgram of bacterial plasmid (pUC-CMVLUC) with luciferase reporter gene under control of the CMV promoter was added to the cell media, either alone, or in the complex with cationic lipids as indicated below, prepared at a variety of lipid-to-DNA ratios. The complexes were prepared by mixing the lipid, as supplied by the manufacturer, and 1 microgram of the plasmid in 40 microliters of HEPES-NS. […]

NCI-A549 cells = test: Uptake of fluorescein-labeled 18-mer phosphorothioate oligonucleotide (F-ON), fluorescence microscopy; type: cell-based, human; conditions: oligonucleotide/lipid weight ratio 1:12, 24 hours, 37° C.
Procedure: Human lung adenocarcinoma cells (NCI-A549, American Type Culture Collection) were grown on Permanox® chamber slides in […] medium supplemented with 10% fetal calf serum (R-10) at 37° C. and 5% CO2. 4 micrograms of fluroscein-labeled 18-mer phosphorothioate oligonucleotide (F-ON) in 0.1 ml of HEPES-buffered saline (20 mM hydroxyethylpiperazine-ethane sulfonic acid (HEPES), 144 mM NaCl, pH 7.4) were mixed with Arg-PE formulated as described in Example 2, at the weight ratio of oligonucleotide to the lipid of 1:12. After 30 minutes of incubation, the mixture was made up to 2 mi with R-10 and added to the cells. After 24 hours incubation at 37° C., 5% CO2, the medium was aspirated, the cells washed 4 times with HEPES-buffered balanced salt solution, and immediately examined through a fluorescence microscope. […] Accumulation of the oligonucleotide in NCI-A549 cells, incubated with F-ON under the same conditions, but in the absence of Arg-PE, was undetectable.

[5] = pUC-CMVLUC, maximum over a range of plasmid/lipid ratios

Structure (SMILES)	Efficiency of DNA delivery compared with DOGS (living cells)	Efficiency of cellular delivery of DNA and PS ON versus commercial materials (living cells)	DNA delivery activity without helper lipid (living cells; without the use of a "helper lipid")	Toxicity compared with commercial lipids (MTT viability) (KB31 cells [1]; 3.2-100 microgram lipid per ml, 24 hours exposure, lipid as such or DNA-lipid complexes)	Toxicity in the studied range of concentrations efficient for gene delivery (KB31 cells [1])	Enhancement of oligonucleotide uptake compared with commercial cationic lipids (NCI-H1048 cells [2]; NCI-H1048 cells)	Total uptake: mean cell fluorescence (NCI-H1048 cells [2]; oligo/lipid ratio 1:3) [relative units]	Uptake increase over oligo alone (NCI-H1048 cells [2]; oligo/lipid ratio 1:3) [times]	Total uptake: mean cell fluorescence (NCI-H1048 cells [2]; oligo/lipid ratio 1:6) [relative units]	Uptake increase over oligo alone (NCI-H1048 cells [2]; oligo/lipid ratio 1:6) [times]	Plasmid delivery compared with other cationic lipids (C26 cells)	Maximum luciferase activity (C26 cells; [5])	Maximum luciferase activity (KB31 cells [3])	Plasmid delivery compared with Transfectam (NCI-H1048 cells [4])	Maximum luciferase activity (NCI-H1048 cells [4]; [5])	Cells showing nuclear fluorescence and cytoplasmic deposits of fluorescent material (NCI-A549 cells) [%]	Microscopic appearance (intracellular distribution of F-ON) (NCI-A549 cells)
CCCCCCCC/C=C\CCCCCCCC(=O)OC[C@H](COP(=O)(O)OCCNC(=O)[C@@H](N)CCCNC(=N)N)OC(=O)CCCCCCC/C=C\CCCCCCCC [Arg-PE, N-Arginyl-dioleoylphosphatidylethanolamine]	superior to that of a polycationic lipid, DOGS	higher efficiency of the cellular delivery of DNA and PS ON	highly active for the DNA delivery into the cells even without the use of a "helper lipid"	displayed the least toxicity	no detectable toxicity	enhanced the uptake of the oligonucleotide by the cells at least as effectively as the tested commercial cationic lipids	2.97	4.26	4.08	5.85	more effective for the plasmid delivery into C26 cells than other monocationic lipids and as effective as the polycationic lipid Transfectam®	9.02 × 10^7 RLU/mg protein	8.25 × 10^6 RLU/mg protein	as effective for the plasmid delivery into NCI-H1048 cells as a polycationic Transfectam®	3.21 × 10^5 RLU/mg protein	100	bright green nuclear fluorescence and substantial cytoplasmic deposits of granular fluorescent material
CCCCCCCCCCCCCCCCCCN(CCCCCCCCCCCCCCCCCC)C(=O)CNC(=O)C(CCCNCCCN)NCCCN (stereo not drawn) [DOGS, reference compound]					no detectable toxicity												
